Source: paper PMC10216263, “Favorable Preclinical Pharmacological Profile of a Novel Antimalarial Pyrrolizidinylmethyl Derivative of 4-amino-7-chloroquinoline with Potent In Vitro and In Vivo Activities” (Biomolecules, 2023)
Like-named read-outs stand apart in the source and are kept apart here.

Columns and labels:
[1] = Blood to plasma partitioning; assay type: in vitro ADME; settings: male, whole blood, human blood, up to 30 min
Method: Plasma protein binding was performed via ultrafiltration (30,000 D cutoff, Amicon, Merck) with heparinized blood samples (male SD rats, Charles River Italy, and male Beagle dogs, Marshall Farms, Europe, Lyon, France) and fresh and frozen heparinized human blood samples collected from fasted healthy male subjects (at least two subjects for plasma samples), were supplied by AAI, Germany. MG3 final concentrations of 100, 300 and 1000 ng/mL were prepared using a 10 mg/mL stock solution while control samples at the same concentrations diluted in DPBS buffer (Dulbecco’s Phosphate Buffered Saline, Sigma-Aldrich) to evaluate the recovery. […] The percentage of bound drug (% Fbound) and of unbound drug (% Ffree) was determined using the following equations: % Fbound = [(Conc. Total–Conc. Free)/Conc. […] Total is the compound concentration determined in plasma and Conc. Free is the compound concentration determined in the ultrafiltrated samples. Results were expressed as % of binding and % of free fraction (single values and mean ± SD). […] Blood to plasma ratio was calculated as: Conc. in blood/Conc. in plasma; where, Conc. is the compound concentration determined in blood and in plasma at the same time of incubation.

[2] = Intrinsic clearance in hepatocytes; assay type: in vitro ADME
Method: (§1) An automatic liquid handling system (Multiprobe II EX, Packard) was used for sampling. At 0, 10, 20, 30, 60 and 90 min, […] aliquots of the incubates were taken and added with […] of ice-cold ACN and […] of 1 µM warfarin in ACN (internal standard), and samples centrifuged at 2000 rpm for 20 min. The analysis of supernatant was conducted using LC-MS/MS. MG3 was incubated in the medium under the same conditions to evaluate the chemical stability; 7-ethoxycoumarin (7-ETC) 1 µM and 7-hydroxycoumarin (7-HC) 30 µM were utilized as positive controls for Phase I and Phase II activities. […] Half-life and CLint were determined from the concentration (counts) remaining at the different sampling points using the LC-MS/MS method. The slope was calculated using linear regression analysis of the curve (natural logarithmic area of the compound remaining against the time) and converted into the half-life (t1/2) and CLint expressed as µL/min/million cells and mL/min/kg, respectively.

monkey hepatocytes = assay: Intrinsic clearance in hepatocytes; assay type: in vitro ADME; settings: 1 µM
Method: as §1

human hepatocytes = assay: Intrinsic clearance in hepatocytes; assay type: in vitro ADME; settings: 1 µM
Method: as §1

dog hepatocytes = assay: Intrinsic clearance in hepatocytes; assay type: in vitro ADME; settings: 1 µM
Method: as §1

mouse hepatocytes = assay: Intrinsic clearance in hepatocytes; assay type: in vitro ADME; settings: 1 µM
Method: as §1

rat hepatocytes = assay: Intrinsic clearance in hepatocytes; assay type: in vitro ADME; settings: 1 µM
Method: as §1

in vivo = assay: in vivo; parameters: species or system male Sprague Dawley rats; settings: male, Sprague Dawley, rat
Method: The formulations were prepared on the days of dosing, immediately before administration. MG3 for IV administration was formulated as in situ dimesylate salt, in 5% of glucose solution (4 mg/mL nominal concentration), while for oral administration it was prepared by suspending the test item in 0.5% methocel solution (v/v) (6 mg/mL nominal concentration). […] After 5-days postoperative recovery period, MG3 was administered and serial blood samples (about 0.3 mL) were collected from femoral vein using heparinized syringe at 5, 15, and 30 min, 1, 3, 6, 24-, 48-, 72- and 96-hours post-dosing after IV administration and at 15, and 30 min, 1, 3, 6 and 24-, 48-, 72- and 96-hours post-dosing after oral administration. The samples were then transferred into pre-cooled tubes protected from light and centrifuged at 3000 rpm for 4 min at +4 °C to collect plasma, and single aliquots of plasma were stored at −80 °C until analysis. Sample analysis: 400 µL of methanol was added to 10 µL of plasma in a 96-well plate; after centrifugation for 15 min at 2000 rpm at 6 °C, an aliquot of 360 µL of supernatant was transferred into a new 96-well plate and dried at 40 °C. Sample extracts were reconstituted with a volume of 150 µL of a mixture solution of 10 mM ammonium formate pH 3.5:methanol (90:10; v/v) and centrifuged for 3 min at 2000 rpm at 6 °C and the supernatant was injected onto the LC-MS/MS system. A HP1100 HPLC with a Synergy 4 um Hydro-RP 80A 2.0 × 50 mm column, coupled with AB/MDS Sciex 4000 QTrap in positive ion mode was utilized for analysis; 10 µL samples were injected, a gradient with 10 mM ammonium formate pH 3.5 and methanol was utilized. Data obtained were analyzed using the non-compartmental approach (Watson package v. 6.4.0.04, Thermo Fisher Scientific, Waltham, MA, USA).

[3] = tested on: Pf-3D7 gametocytes >95% Stage I-III; assay: Gametocyte luciferase assay (3D7elo1-pfs16-CBG99); assay type: cell-based, P. falciparum
Method: In vitro activity of MG3 against P falciparum sexual gametocyte stages […]
luminescent transgenic 3D7 strain (3D7elo1-pfs16-CBG99) at two different stages (I-III and V) using the […]
Briefly, 100 µL of culture medium were removed from each well to increase hematocrit; 70 µL of resuspended culture were transferred to a black 96-well plate; 70 µL of D-luciferin (1 mM in citrate buffer 0.1 M, pH 5.5) were added. Luminescence measurements were performed after 10 min with 500 ms integration time using a Synergy4-BioTek reader.
(1 picture or pasted object on this page, not shown here)

Structure (SMILES): Clc1ccc2c(NCC34CCCN3CCC4)ccnc2c1 [MG3, 7-Chloro-N-((hexahydro-1H-pyrrolizin-7a-yl)methyl)quinolin-4-amine]
- blood plasma ratio at 300 ng/mL [1]: ~1
- CLint scaled at 1 µM ([2]; dog hepatocytes): 111 mL/min/kg
- CLint scaled at 1 µM ([2]; human hepatocytes): 4.9 mL/min/kg
- CLint scaled at 1 µM ([2]; monkey hepatocytes): 44 mL/min/kg
- CLint scaled at 1 µM ([2]; mouse hepatocytes): 196 mL/min/kg
- CLint scaled at 1 µM ([2]; rat hepatocytes): 51 mL/min/kg
- Half/life (monkey hepatocytes): 86 min
- Half/life (human hepatocytes): 340 min
- Half/life (dog hepatocytes): 48 min
- Half/life (mouse hepatocytes): 31 min
- Half/life (rat hepatocytes): 65 min
- AUC(0-inf) (in vivo; iv, 10 mg/kg): 1300 ± 223 ng·h/mL
- AUC(0-t) (in vivo; iv, 10 mg/kg): 1290 ± 217 ng·h/mL
- Cmax (in vivo; iv, 10 mg/kg): 395 ± 118 ng/mL
- Vd (in vivo; iv, 10 mg/kg): 59.9 L/kg
- clearance (in vivo; iv, 10 mg/kg): 139 ± 20.2 mL/min/kg
- half-life (in vivo; iv, 10 mg/kg): 462 ± 36 min
- tlast (in vivo; iv, 10 mg/kg): 48.0 ± 0.1 h
- AUC(0-inf) (in vivo; po, 30 mg/kg): 4400 ± 633 ng·h/mL
- AUC(0-t) (in vivo; po, 30 mg/kg): 4360 ± 630 ng·h/mL
- Cmax (in vivo; po, 30 mg/kg): 213 ± 23.7 ng/mL
- half-life (in vivo; po, 30 mg/kg): 642 ± 72 min
- still detectable in the plasma up to (in vivo; po, 30 mg/kg): 72 to 96 h
- tlast (in vivo; po, 30 mg/kg): 80.0 ± 13.9 h
- IC50 ([3]; Plasmodium falciparum, 3D7, read-out: Pf-3D7 gametocytes IC50 (nM), >95% Stage I-III, luciferase readout, 3D7elo1-pfs16-CBG99): 102 ± 22.1 nM
- IC50 ([3]; read-out: Pf-3D7 gametocytes IC50 (nM), >95% Stage I-III, luciferase readout, 3D7elo1-pfs16-CBG99): ~100 nM
